Calls of active or inactive are those of the source. The calls are words filed in the database; no cut-off is given here.
Columns and labels:
[1] = target: T1, P2X purinoceptor 7 (Homo sapiens, UniProt Q99572); test: Antagonist activity at human P2X7 receptor transfected in THP1 cells assessed as inhibition of benzoyl-ATP-induced changes in plasma membrane pore formation; type: functional, cell-based, THP-1; conditions: read-out: pA2 (converted)
T1 sequence (Q99572 whole entry): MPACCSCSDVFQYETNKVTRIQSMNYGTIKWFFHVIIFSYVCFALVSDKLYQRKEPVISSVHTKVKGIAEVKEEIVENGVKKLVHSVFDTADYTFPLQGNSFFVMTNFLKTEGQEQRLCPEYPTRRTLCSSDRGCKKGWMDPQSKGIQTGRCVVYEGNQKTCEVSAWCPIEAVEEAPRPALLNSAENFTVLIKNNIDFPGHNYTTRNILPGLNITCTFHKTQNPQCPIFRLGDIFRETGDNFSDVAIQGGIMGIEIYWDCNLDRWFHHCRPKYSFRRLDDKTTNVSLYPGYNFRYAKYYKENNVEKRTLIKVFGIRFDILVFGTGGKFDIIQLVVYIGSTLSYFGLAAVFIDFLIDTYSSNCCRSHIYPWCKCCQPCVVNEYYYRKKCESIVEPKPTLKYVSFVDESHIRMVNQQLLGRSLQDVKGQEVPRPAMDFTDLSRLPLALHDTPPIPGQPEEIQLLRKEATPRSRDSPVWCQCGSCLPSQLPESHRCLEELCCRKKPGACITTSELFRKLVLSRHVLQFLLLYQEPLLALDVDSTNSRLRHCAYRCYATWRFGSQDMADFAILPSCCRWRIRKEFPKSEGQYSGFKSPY

[2] = target: T2, P2X purinoceptor 7 (Rattus norvegicus, UniProt Q64663); test: Antagonist activity at rat P2X7 receptor transfected in HEK cells assessed as inhibition of benzoyl-ATP-induced changes in plasma membrane pore formation; type: functional, cell-based, HEK293; conditions: for Kb: read-out: pA2 (converted)
T2 sequence (Q64663 whole entry): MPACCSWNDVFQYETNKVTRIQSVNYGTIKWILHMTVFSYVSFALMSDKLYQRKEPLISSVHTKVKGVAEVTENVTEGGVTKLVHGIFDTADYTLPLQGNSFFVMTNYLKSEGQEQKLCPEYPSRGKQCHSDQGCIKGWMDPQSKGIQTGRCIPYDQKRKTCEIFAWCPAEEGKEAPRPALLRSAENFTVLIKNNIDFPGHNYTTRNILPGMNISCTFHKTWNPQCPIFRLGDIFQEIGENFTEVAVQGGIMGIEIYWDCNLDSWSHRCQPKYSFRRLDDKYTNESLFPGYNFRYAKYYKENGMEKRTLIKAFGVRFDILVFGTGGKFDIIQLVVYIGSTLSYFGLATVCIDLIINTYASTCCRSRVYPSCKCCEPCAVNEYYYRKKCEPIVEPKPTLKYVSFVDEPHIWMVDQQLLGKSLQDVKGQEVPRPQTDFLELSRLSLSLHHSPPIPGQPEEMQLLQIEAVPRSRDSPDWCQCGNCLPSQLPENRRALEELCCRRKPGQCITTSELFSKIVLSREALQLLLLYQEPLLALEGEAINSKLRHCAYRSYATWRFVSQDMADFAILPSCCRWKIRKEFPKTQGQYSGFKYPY

[3] = system: Monocyte; test: Inhibition of BzATP-induced IL1-beta release from LPS-primed human monocytes by ELISA; type: functional, cell-based
[4] = system: Monocyte; test: Inhibition of BzATP-induced IL18 release from LPS-primed human monocytes by ELISA; type: functional, cell-based
[5] = system: Hepatocyte; test: Intrinsic clearance in rat hepatocytes; type: ADME, cell-based, Liver
[6] = Clearance in Sprague-Dawley rat; type: ADME, organism-based; conditions: in vivo
[7] = Volume of distribution at steady state in Sprague-Dawley rat; type: ADME, organism-based; conditions: in vivo, read-out: Vdss
[8] = system: Hepatocyte; test: Intrinsic clearance in human hepatocytes; type: ADME, cell-based, Liver
[9] = Half life in Sprague-Dawley rat; type: ADME, organism-based; conditions: in vivo
[10] = Bioavailability in Sprague-Dawley rat; type: ADME, organism-based; conditions: in vivo
[11] = Activity at sigma receptor; set-up: species or system Homo sapiens
[12] = target: T3, P2X purinoceptor 3 (Homo sapiens) (UniProt P56373); test: Activity at human P2X3 receptor at 10 uM
T3 sequence (whole entry): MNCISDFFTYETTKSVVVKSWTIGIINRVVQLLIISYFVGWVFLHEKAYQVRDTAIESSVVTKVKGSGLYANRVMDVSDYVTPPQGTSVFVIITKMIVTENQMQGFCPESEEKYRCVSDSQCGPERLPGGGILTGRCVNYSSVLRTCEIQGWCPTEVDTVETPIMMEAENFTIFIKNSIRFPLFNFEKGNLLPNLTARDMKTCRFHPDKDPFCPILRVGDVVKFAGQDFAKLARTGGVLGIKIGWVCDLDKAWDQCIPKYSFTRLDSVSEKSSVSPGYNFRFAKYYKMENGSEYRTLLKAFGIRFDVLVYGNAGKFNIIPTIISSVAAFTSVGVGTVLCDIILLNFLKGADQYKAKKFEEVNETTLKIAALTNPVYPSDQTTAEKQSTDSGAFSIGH

[13] = target: Vasopressin V1a receptor (Homo sapiens, UniProt P37288); test: Activity at vasopressin V1A receptor
Chain of Vasopressin V1a receptor (P37288 whole entry): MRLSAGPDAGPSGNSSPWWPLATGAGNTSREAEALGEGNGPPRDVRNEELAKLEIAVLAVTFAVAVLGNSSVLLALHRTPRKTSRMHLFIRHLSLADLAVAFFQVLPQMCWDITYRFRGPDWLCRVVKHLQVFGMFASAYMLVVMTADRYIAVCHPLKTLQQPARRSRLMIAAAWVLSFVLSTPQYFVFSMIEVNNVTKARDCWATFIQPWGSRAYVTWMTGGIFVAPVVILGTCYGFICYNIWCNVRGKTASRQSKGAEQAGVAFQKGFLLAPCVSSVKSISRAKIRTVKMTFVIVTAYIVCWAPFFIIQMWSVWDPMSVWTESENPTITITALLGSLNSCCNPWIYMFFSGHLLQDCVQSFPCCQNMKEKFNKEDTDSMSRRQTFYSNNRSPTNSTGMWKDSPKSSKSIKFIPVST

[14] = target: T4, P2X purinoceptor 4 (Homo sapiens) (UniProt Q99571); test: Activity at human P2X4 receptor at 10 uM
T4 sequence (whole entry): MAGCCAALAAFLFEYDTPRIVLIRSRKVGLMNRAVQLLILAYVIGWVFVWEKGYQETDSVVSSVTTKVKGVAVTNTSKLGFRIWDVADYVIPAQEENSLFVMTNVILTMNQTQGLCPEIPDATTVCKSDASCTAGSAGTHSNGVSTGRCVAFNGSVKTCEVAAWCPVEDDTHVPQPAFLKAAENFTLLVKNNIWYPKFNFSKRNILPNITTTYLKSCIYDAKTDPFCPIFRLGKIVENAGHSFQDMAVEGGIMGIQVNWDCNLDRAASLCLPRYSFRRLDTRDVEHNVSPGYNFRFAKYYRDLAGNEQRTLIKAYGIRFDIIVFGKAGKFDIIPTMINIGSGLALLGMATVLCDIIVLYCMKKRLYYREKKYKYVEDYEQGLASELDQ

[15] = target: T5, P2X purinoceptor 2 (Rattus norvegicus) (UniProt P49653); test: Activity at rat P2X2 receptor at 10 uM
T5 sequence (whole entry): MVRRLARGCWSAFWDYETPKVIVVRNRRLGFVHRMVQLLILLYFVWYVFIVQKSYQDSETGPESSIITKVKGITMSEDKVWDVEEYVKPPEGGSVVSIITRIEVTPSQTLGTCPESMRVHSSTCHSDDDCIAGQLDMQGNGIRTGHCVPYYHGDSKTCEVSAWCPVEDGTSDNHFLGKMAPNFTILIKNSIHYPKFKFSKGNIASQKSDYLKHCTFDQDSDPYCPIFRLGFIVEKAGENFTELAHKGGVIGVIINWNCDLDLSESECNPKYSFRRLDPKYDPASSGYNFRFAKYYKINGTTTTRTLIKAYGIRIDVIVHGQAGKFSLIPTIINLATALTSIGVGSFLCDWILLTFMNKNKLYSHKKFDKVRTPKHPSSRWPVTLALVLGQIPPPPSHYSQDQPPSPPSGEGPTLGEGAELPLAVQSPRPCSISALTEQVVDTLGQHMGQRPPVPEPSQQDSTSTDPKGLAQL

[16] = organism: Rattus norvegicus; test: Activity at rat P2X2/3 heteromeric receptor at 10 uM
[17] = target: P2X purinoceptor 5 (Homo sapiens) (UniProt Q93086); test: Activity at human P2X5 receptor at 10 uM
Chain of P2X purinoceptor 5 (Homo sapiens) (Q93086 whole entry): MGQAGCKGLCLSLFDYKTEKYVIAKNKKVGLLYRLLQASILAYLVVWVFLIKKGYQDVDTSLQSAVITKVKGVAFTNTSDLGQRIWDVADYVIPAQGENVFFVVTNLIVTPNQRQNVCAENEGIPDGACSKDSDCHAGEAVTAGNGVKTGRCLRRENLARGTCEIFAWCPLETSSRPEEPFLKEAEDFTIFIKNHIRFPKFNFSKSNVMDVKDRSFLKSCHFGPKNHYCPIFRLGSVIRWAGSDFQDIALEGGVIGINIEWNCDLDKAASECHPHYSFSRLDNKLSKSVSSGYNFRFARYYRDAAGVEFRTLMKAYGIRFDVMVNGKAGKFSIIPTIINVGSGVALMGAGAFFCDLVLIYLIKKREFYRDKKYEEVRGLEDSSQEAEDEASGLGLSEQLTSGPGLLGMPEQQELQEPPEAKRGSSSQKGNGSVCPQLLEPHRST

[18] = Protein binding in rat plasma; type: ADME, cell-free; conditions: read-out: PPB (converted)
[19] = target: T6, P2X purinoceptor 1 (Homo sapiens) (UniProt P51575); test: Activity at human P2X1 receptor at 10 uM
T6 sequence (whole entry): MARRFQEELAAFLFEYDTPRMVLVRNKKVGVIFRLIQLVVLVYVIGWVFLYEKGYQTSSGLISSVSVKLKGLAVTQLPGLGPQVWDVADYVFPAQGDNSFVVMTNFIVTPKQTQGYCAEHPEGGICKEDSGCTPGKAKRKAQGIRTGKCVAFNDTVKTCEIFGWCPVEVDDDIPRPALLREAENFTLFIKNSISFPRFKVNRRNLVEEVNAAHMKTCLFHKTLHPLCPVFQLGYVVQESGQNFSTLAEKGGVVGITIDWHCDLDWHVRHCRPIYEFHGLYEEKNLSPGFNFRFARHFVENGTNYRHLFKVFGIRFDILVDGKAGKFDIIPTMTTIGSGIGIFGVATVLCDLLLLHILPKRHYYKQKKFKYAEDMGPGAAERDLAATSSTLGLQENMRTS

Structure (SMILES)	Kb [1]	IC50 ([2]; read-out: Log IC50 (converted))	other results
O=C(NCC12CC3CC(CC(C3)C1)C2)c1cc(CC2CCNCC2)ccc1Cl	15.8 nM	63.1 nM	
Cc1sc(CN2CCNCC2)cc1C(=O)NCC12CC3CC(CC(C3)C1)C2	316 nM	> 10000 nM	
O=C(NCC12CC3CC(CC(C3)C1)C2)c1cc(N2CCNCC2)ccc1Cl	31.6 nM	1260 nM	
Cc1oc(CN2CCNCC2)cc1C(=O)NCC12CC3CC(CC(C3)C1)C2	> 10000 nM	> 10000 nM	Activity [3]: inactive; Activity [4]: Active
O=C(NCC12CC3CC(CC(C3)C1)C2)c1cc(CN2CCNCC2)ccc1Cl	10 nM	398 nM	CL [5]: < 5 µL/min; clearance [6]: 13 mL/min/kg; Vd [7]: 5.31 L/kg; IC50 [3]: 79.4 nM; CL [8]: < 3 µL/min; IC50 [4]: 39.8 nM; half-life [9]: 5.2 h; bioavailability [10]: 79%
O=C(NCC12CC3CC(CC(C3)C1)C2)c1cc(CN2CC3CNCC(C2)O3)ccc1Cl			Kb [2]: 25.1 nM
O=C(NCC12CC3CC(CC(C3)C1)C2)c1cc(C(=O)N2CC3CNCC(C2)O3)ccc1Cl			IC50 [11]: 4000 nM; Activity [12]: inactive; IC50 [13]: 7000 nM; Activity [14]: inactive; Activity [15]: inactive; Activity [16]: inactive; Activity [17]: inactive
O=C(NCC12CC3CC(CC(C3)C1)C2)c1cc(CN2C[C@@H]3C[C@H]2CN3)ccc1Cl	5.01 nM	251 nM	
Cc1nnc(OC2CCNCC2)cc1C(=O)NCC12CC3CC(CC(C3)C1)C2	1580 nM	794 nM	
O=C(NCC12CC3CC(CC(C3)C1)C2)c1nc(OC2CCCNC2)ncc1Cl (centres undefined)	251 nM	316 nM	
Cc1ccc(C(=O)N2CC3CNCC(C2)O3)cc1C(=O)NCC12CC3CC(CC(C3)C1)C2			IC50 [11]: 4000 nM; fraction unbound [18]: 0.34; Activity [19]: inactive; Activity [12]: inactive; IC50 [13]: 7000 nM; Kb [2]: 15.8 nM; Activity [14]: inactive; Activity [15]: inactive; Activity [16]: inactive; Activity [17]: inactive
O=C(NCC12CC3CC(CC(C3)C1)C2)c1cccc(CN2CCCCC2)c1Cl	200 nM	> 10000 nM	
O=C(NCC12CC3CC(CC(C3)C1)C2)c1ccc(CN2CCCCC2)cc1Cl	126 nM	794 nM	
O=C(NCC12CC3CC(CC(C3)C1)C2)c1c(Cl)cccc1OC1CCNCC1	> 10000 nM	> 10000 nM	

Further lines, with some results ahead:

Kb [1]	IC50 ([2]; read-out: Log IC50 (converted))	Structure (SMILES)	other results
15.8 nM	316 nM	O=C(NCC12CC3CC(CC(C3)C1)C2)c1cc(C2CCNCC2)ccc1Cl	
25.1 nM	501 nM	O=C(NCC12CC3CC(CC(C3)C1)C2)c1cc(NC2CCNCC2)ccc1Cl	
15.8 nM	631 nM	O=C(NCC12CC3CC(CC(C3)C1)C2)c1cc(OC2CCNCC2)ccc1Cl	
5.01 nM		O=C(NCC12CC3CC(CC(C3)C1)C2)c1cc(NC2CCCNC2)ccc1Cl (racemic)	IC50 ([2]; read-out: IC50): 30 nM
10 nM	100 nM	O=C(NCC12CC3CC(CC(C3)C1)C2)c1cc(O[C@H]2CCCNC2)ccc1Cl	
6.31 nM		O=C(NCC12CC3CC(CC(C3)C1)C2)c1cc(CC2CCCNC2)ccc1Cl (racemic)	IC50 ([2]; read-out: IC50): 30 nM
6.31 nM	316 nM	O=C(NCC12CC3CC(CC(C3)C1)C2)c1cc(O[C@@H]2CCCNC2)ccc1Cl	
